Columns and labels:
sigma-1 receptor [1] = target: T1, sigma-1 receptor (Homo sapiens, UniProt Q99720); settings: cited from earlier work
Candida albican = settings: in vivo; cited from earlier work
[2] = system: CD4+ and CD8+ lymphocytes; settings: cited from earlier work
[3] = system: interleukin-1beta and TNF-alpha; settings: in vivo; cited from earlier work
SARS-CoV-2 [4] = assay type: cell-based
sigma = settings: non-selective sigma binding assay; cited from earlier work
[5] = system: Vero E6 cells infected with SARS-CoV-2; experiment: Neutral red cytoprotection/cytotoxicity in Vero E6 cells infected with SARS-CoV-2; settings: Vero E6, dose response
Calu-3 cells = experiment: Cell death and viability of Calu-3 cells (cytotoxicity, no virus); assay type: cell-based, human
Description: 4. Cytotoxicity assays were conducted in parallel, for these no virus was added.
a. Cell viability: was assessed by staining cells with the ViaStain™ Calcein AM/Hoechst/PI Viability Kit (Nexcelom, Cat #CS5-V006-1) per manufacturer's instructions and imaging with the Celígo Imaging Cytometer (Nexcelom). Briefly, live and metabolically active cells were detected using the Calcein AM stain (Ex/Em: 488/520). Dead cells were detected using the propidium iodide stain (PI, Ex/Em: 493/636). Total number of cells were detected using the Hoechst-nuclear stain (Ex/Em: 352/461). Thus, cell viability was assessed by comparing live cells counts (normalized to total cell count) across treatment groups, and cell cytotoxicity was assessed through comparison of dead cell counts (normalized to total cells) across treatment groups.

sigma-1 receptor [6] = target: T1, sigma-1 receptor; settings: cited from earlier work; remark: listed apart in the source
sigma-2 receptor = sigma-2 receptor (Homo sapiens, UniProt Q5BJF2); settings: cited from earlier work
Sequence of sigma-2 receptor (Q5BJF2 whole entry): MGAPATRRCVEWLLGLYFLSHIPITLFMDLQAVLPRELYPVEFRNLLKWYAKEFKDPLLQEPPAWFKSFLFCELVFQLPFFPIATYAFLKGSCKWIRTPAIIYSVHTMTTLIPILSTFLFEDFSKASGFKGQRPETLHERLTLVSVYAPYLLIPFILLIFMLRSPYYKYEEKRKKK

SARS-CoV-2 [7] = settings: cited from earlier work

T1 sequence (Q99720 whole entry, species assumed): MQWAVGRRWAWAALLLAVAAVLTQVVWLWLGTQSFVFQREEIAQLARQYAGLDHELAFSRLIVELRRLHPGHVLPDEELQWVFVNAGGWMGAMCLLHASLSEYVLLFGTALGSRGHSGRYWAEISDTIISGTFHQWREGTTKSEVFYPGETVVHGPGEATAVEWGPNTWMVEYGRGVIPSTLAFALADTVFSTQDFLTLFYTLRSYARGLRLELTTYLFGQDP

CCN[C@@H](C)Cc1cccc(C(F)(F)F)c1 (racemic) [dexfenfluramine]
sigma-1 receptor modulation (sigma-1 receptor [1]): positive modulators
CD3+ and CD8+ lymphocytes (Candida albican): marked increase
numbers of NK1.1+ cells (Candida albican): modest increase
number of CD4+ and CD8+ lymphocytes that produced IFN-gamma ([2]; HIV+ or HIV- patients): increased
number of CD8+ lymphocytes that produce TNF-alpha ([2]; HIV+ patients): increased
amount of IL-2 produced by CD4+ and CD8+ lymphocytes ([2]; lymphocytes from HIV+ patients): increased

CCNC(C)Cc1cccc(C(F)(F)F)c1 (racemic) [fenfluramine, (RS)—N-ethyl-1-[3-(trifluoromethyl)phenyl]propan-2-amine]
sigma-1 receptor modulation (sigma-1 receptor [1]): positive allosteric modulator
production of interleukin-1beta and TNF-alpha [3]: suppressed
average viral replication (mNeonGreen fluorescence normalized to total cell count) (SARS-CoV-2 [4]): about 2·10^3
SARS-CoV-2 viral replication compared with control cells receiving only vehicle (SARS-CoV-2 [4]; Calu-3 cells, 50 mM fenfluramine as printed, 72 hr): statistically significantly (p<0.0001) lower
Ki (sigma): 266 nM
neutral red signal, virus infected cells ([5]; SARS-CoV-2 infected MOI 0.1, FIG. 4B): ~0.2
neutral red signal, uninfected cells ([5]; uninfected cells, FIG. 4B): ~1.0
cytotoxicity (cell death and viability versus controls) (Calu-3 cells; 20 μg/ml): not cytotoxic
cytotoxicity (cell death and viability versus controls) (Calu-3 cells; 40 μg/ml): cytotoxic

CCN(CC)CCCC(C)Nc1ccnc2cc(Cl)ccc12 (centres unmarked) [Chloroquine]
binding/activity at sigma-1 receptor (sigma-1 receptor [6]): mid-nM activity
binding/activity at sigma-2 receptor (sigma-2 receptor): low uM activity

O=C(CCCN1CCC(O)(c2ccc(Cl)cc2)CC1)c1ccc(F)cc1 [Haloperidol]
inhibition of SARS-CoV-2 in vitro (SARS-CoV-2 [7]): inhibit
binding/activity at sigma-2 receptor (sigma-2 receptor): low nM range

CCN(CCO)CCCC(C)Nc1ccnc2cc(Cl)ccc12 (centres unmarked) [hydroxy-chloroquine]
inhibition of SARS-CoV-2 in vitro (SARS-CoV-2 [7]): inhibit
